# In patent US20160136194A1, “Pharmaceutical composition comprising a proton pump inhibitor and a prebiotic for the treatment of ulcerous lesions of the stomach and duodenum” (priority 2010, published 2016):
# Legend:
# Helicobacter pylori [1] = test: Microbiological method: isolation of H. pylori culture from patient material, before and after therapy; type: in vivo; details: share of patients positive, n = 10
# Excerpt: (§1) There were enrolled 80 patients aged 19 to 57 years in the study: males and females with newly diagnosed gastric and duodenal ulcer, five from them with Zollinger-Ellison syndrome.
# (§2) All patients were divided into 8 groups of 10 patients each, 4 groups of them were experimental: the declared dosage forms on the base of PPI and prebiotic were orally administered by them. For the first group active components of the composition were omeprazole and a lactulose; for the second group—pantoprazole and prebiotic lactitol; for the third group—lansoprazole, and prebiotic inulin; for the fourth group—rabeprazole and prebiotic amino acids (glutamic acid). 5th, 6th, 7th and 8th groups were control: patients of the 5th group received monotherapy by omeprazole; patients of the 6th group—by lansoprazole; patients of the 7th group—esomeprazole and patients of the 8th group of patients received standard therapy for the elimination of H. pylori: omeprazole, metronidazole and clarithromycin.
# (§3) All patients received treatment according to the similar regimen: took the composition of PPI and prebiotic 1-2 times a day within 14 days.
# 4. Microbiological method. Inoculation and isolation of pure culture of H. pylori from the biopsy material of the mucosa, obtained by gastroduodenoscopy.
# Before the beginning and after the termination of the eradication therapy all 80 patients have been enrolled in the clinical trials were microbiologically tested on the presence of H. pylori, lactobacilli and bifidobacteria in the stomach and duodenum content.
# The material was analyzed in microbiological laboratory of the Pasteur Institute of Epidemiology and Microbiology, St. Petersburg.
# Strains of H. pylori were identified on the base of analysis of colony and cell morphology, cultural, biochemical and tinctorial properties of microorganisms. Lactobacillus strains isolated in the material from the intestine additionally were identified on catalase and oxidase activity.
# The bacterium quantity in the material was estimated by calculation of colonies on dense nutrient mediums that were represented in the form of Ig CFU/ml.
# Helicobacter pylori [2] = test: Urease test of gastric mucosa biopsy material; type: in vivo; details: share of patients positive, n = 10
# Excerpt: as §1, §2, §3
# 2. Urease test. The biopsy material of the gastric mucosa was examinated for the presence of the urease—enzyme specific for Helicobacter pylori (Helicobacter Test INFAI).
# Helicobacter pylori [3] = test: Cytological test of the biopsy material of the gastric mucosa; type: in vivo; details: share of patients positive, n = 10
# Excerpt: as §1, §2, §3
# 1. Cytological and histological examination of imprint smear of the biopsy material of the gastric antrum mucosa, obtained by gastroscopy. Thus, microcolonies of Helicobacter pylori are detected using special stain.
# gastric acid secretion = details: compared with PPI of the first generation; cited from earlier work
# [4] = after therapy (1-2 times a day, 14 days)
Structure (SMILES),Isolation of Helicobacter pylori from stomach content (Helicobacter pylori [1]; [4]),"Isolation of Helicobacter pylori from stomach content (Helicobacter pylori [1]; before therapy, peptic ulcer)",Urease test (Helicobacter pylori [2]; after therapy (14 days)),Urease test (Helicobacter pylori [2]; before therapy),Cytological test of the biopsy material of the gastric mucosa (Helicobacter pylori [3]; after therapy (14 days)),Cytological test of the biopsy material of the gastric mucosa (Helicobacter pylori [3]; before therapy),"Kept pH value <4 in stomach, above PPI of the first generation (gastric acid secretion)"
"COc1ccc2nc([S@@+]([O-])Cc3ncc(C)c(OC)c3C)[nH]c2c1 [7th group, esomeprazole]",50%,100%,40%,60%,40%,70%,10-15%
"COc1ccc2[nH]c([S+]([O-])Cc3ncc(C)c(OC)c3C)nc2c1 (stereo not shown) [5th group, omeprazole]",50%,100%,30%,70%,40%,80%,
"Cc1c(OCC(F)(F)F)ccnc1C[S+]([O-])c1nc2ccccc2[nH]1 (stereo not shown) [6th group, lansoprazole]",60%,100%,60%,70%,40%,60%,
